What was measured:
[1] = system: Mino cells; assay: cells; type: cell-based; conditions: Homo sapiens, read-out: Mino IC50
[2] = system: Jeko-1 cells; assay: Alarma Blue cell viability assay, Jeko-1; type: cell-based
[3] = system: Rec-R cells; assay: Alarma Blue cell viability assay, Rec-R; type: cell-based
[4] = target: IKZF1-nLuc (Homo sapiens, UniProt Q13422+Q96SW2); conditions: other cell line
[5] = target: T1, IKZF3-nLuc (Homo sapiens, UniProt Q96SW2+Q9UKT9); conditions: other cell line
[6] = target: BTK-nLuc fusion protein (Homo sapiens, UniProt Q06187+Q96SW2); assay: BTK-nLuc endpoint degradation assay; type: cell-based; conditions: HEK-293T cells stably expressing BTK-nLuc, 24 h
Sequence of BTK-nLuc fusion protein (Q06187 whole entry, the tested form may be a part): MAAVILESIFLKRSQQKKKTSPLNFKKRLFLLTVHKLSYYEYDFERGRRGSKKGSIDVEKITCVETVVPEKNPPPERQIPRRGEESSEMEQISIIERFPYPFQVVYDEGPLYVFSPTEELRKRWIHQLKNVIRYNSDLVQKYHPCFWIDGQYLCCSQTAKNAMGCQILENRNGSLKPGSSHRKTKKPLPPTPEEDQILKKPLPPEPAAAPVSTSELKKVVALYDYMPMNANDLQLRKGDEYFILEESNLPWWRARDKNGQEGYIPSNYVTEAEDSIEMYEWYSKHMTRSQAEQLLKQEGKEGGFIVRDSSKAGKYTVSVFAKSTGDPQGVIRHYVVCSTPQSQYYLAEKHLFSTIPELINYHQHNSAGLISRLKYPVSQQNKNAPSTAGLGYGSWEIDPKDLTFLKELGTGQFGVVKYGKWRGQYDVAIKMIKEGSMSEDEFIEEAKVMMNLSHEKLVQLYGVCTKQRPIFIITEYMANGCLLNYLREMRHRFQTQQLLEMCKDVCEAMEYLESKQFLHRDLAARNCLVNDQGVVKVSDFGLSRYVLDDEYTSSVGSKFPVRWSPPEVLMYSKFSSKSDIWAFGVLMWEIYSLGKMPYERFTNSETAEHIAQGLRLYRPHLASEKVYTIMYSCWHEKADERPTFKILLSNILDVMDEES
Sequence of BTK-nLuc fusion protein (Q96SW2 whole entry, the tested form may be a part): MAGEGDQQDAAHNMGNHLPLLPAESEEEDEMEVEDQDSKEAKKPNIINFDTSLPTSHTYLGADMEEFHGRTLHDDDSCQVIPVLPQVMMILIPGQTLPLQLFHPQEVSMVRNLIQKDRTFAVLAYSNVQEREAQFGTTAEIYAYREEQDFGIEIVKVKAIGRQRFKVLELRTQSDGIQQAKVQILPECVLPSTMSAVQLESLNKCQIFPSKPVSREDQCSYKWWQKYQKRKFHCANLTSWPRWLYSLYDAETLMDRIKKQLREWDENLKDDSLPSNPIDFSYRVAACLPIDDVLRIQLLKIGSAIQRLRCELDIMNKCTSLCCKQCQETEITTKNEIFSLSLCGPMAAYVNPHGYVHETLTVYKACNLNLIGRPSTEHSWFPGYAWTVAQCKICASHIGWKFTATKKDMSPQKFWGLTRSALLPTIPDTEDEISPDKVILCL
Sequence of BTK-nLuc fusion protein (Q16531 whole entry partner, the tested form may be a part): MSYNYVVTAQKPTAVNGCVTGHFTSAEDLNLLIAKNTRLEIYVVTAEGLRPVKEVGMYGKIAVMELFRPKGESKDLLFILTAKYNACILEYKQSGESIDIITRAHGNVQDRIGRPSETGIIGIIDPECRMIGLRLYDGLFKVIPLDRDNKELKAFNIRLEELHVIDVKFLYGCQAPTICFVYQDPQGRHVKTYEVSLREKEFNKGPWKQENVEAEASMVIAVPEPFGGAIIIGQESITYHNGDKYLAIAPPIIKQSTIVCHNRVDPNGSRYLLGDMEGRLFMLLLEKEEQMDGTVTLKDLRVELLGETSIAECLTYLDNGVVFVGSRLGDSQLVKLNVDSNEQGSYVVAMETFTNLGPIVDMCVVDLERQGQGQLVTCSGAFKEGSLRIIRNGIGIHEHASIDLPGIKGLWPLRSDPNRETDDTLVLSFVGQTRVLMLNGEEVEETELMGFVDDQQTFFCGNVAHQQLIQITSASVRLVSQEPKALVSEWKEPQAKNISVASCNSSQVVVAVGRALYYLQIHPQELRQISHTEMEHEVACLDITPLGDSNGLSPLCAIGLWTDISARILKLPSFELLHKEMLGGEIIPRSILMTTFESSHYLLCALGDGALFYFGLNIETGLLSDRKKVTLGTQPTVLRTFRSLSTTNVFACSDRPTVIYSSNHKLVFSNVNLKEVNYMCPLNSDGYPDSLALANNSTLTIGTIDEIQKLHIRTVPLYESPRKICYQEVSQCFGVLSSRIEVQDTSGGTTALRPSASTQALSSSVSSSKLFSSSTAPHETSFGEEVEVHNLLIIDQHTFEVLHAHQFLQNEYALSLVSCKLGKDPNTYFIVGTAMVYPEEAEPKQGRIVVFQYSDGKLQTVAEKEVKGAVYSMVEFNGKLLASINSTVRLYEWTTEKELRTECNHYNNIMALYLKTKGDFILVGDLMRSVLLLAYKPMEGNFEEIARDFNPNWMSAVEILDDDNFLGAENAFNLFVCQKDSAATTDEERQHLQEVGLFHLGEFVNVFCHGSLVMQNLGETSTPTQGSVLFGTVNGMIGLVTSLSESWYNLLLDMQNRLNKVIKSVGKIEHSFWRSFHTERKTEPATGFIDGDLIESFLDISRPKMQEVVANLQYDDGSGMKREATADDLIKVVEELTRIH

[7] = target: BTK (Homo sapiens, UniProt Q06187); assay: Western blotting for BTK in Mino cells; type: cell-based; conditions: 24 h; for BTK degradation in Mino cells: Western blotting
Sequence of BTK (Q06187 whole entry): as the sequence (Q06187 whole entry, the tested form may be a part) above

[8] = target: T1, IKZF3-nLuc; type: cell-based
[9] = target: IKZF1 (Homo sapiens, UniProt Q13422+Q96SW2); assay: Western blotting for IKZF1 in Mino cells; type: cell-based; conditions: at 200 nM; assay not given
Sequence of IKZF1 (Q13422 whole entry): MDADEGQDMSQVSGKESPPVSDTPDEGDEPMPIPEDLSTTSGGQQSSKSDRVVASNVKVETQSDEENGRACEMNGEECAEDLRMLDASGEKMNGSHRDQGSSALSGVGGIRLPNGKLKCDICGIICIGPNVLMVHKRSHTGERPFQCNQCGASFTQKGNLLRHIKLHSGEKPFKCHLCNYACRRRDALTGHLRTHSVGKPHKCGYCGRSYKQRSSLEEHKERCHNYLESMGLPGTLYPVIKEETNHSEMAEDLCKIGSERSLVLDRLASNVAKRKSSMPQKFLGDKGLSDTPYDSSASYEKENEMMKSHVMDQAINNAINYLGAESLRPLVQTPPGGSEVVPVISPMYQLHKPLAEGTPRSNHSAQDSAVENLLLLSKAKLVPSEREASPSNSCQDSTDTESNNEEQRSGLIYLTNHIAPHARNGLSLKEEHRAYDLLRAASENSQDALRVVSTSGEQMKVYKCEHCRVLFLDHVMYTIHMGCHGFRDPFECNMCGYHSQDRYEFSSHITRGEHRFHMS
Sequence of IKZF1 (Q96SW2 whole entry): as the sequence (Q96SW2 whole entry, the tested form may be a part) above
Sequence of IKZF1 (Q16531 whole entry partner): as the sequence (Q16531 whole entry partner, the tested form may be a part) above

[10] = target: IKZF3 (Homo sapiens, UniProt Q96SW2+Q9UKT9); assay: Western blotting for IKZF3 in Mino cells; type: cell-based; conditions: at 40 nM; assay not given
Sequence of IKZF3 (Q9UKT9 whole entry): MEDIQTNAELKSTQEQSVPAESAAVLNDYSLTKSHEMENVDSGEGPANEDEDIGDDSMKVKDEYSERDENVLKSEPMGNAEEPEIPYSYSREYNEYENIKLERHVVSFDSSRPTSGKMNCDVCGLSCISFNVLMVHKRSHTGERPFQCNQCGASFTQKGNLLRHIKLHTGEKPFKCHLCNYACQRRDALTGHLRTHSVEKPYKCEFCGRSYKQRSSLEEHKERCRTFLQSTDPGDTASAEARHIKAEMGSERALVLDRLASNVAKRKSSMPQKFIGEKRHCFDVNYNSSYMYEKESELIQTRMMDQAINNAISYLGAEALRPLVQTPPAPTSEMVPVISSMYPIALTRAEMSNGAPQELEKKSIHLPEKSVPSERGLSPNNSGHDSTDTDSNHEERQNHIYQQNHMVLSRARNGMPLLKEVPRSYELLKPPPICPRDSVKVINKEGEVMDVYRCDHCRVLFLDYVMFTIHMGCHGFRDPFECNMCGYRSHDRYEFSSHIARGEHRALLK
Sequence of IKZF3 (Q96SW2 whole entry): as the sequence (Q96SW2 whole entry, the tested form may be a part) above
Sequence of IKZF3 (Q16531 whole entry partner): as the sequence (Q16531 whole entry partner, the tested form may be a part) above

[11] = target: His-BTK (Homo sapiens, UniProt Q06187); assay: TR-FRET competition binding assay with BTK-BODIPY tracer; conditions: 2 h incubation, 150 nM tracer, 2 nM His-BTK
Sequence of His-BTK (Q06187 whole entry): as the sequence (Q06187 whole entry, the tested form may be a part) above

[12] = system: MOLM14 cells; assay: Alarma Blue cell viability assay, MOLM14; type: cell-based; conditions: Homo sapiens, MOLM-14, 72 h, read-out: MOLM14 IC50

T1 sequence (Q9UKT9 whole entry, the tested form may be a part): as the sequence (Q9UKT9 whole entry) above
T1 sequence (Q96SW2 whole entry, the tested form may be a part): as the sequence (Q96SW2 whole entry, the tested form may be a part) above
T1 sequence (Q16531 whole entry partner, the tested form may be a part): as the sequence (Q16531 whole entry partner, the tested form may be a part) above
Sequence of IKZF1-nLuc (Q13422 whole entry): as the sequence (Q13422 whole entry) above
Sequence of IKZF1-nLuc (Q96SW2 whole entry): as the sequence (Q96SW2 whole entry, the tested form may be a part) above
Sequence of IKZF1-nLuc (Q16531 whole entry partner): as the sequence (Q16531 whole entry partner, the tested form may be a part) above

Nc1cccc2c1C(=O)N(C1CCC(=O)NC1=O)C2=O (centres unmarked) [Pomalidomide, pomalidomide]
IC50 [1]: 329 nM | response of Jeko-1 cells [2]: only Mino cells are responsive | response of Rec-R cells [3]: only Mino cells are responsive | IKZF1 degradation half-life [4]: 4.9 h | IKZF3 degradation half-life [5]: 1.9 h

Cc1c(NC(=O)c2ccc(C(C)(C)C)cc2)cccc1-c1cn(C)c(=O)c(Nc2ccc(C(=O)N3CCN(CCCCCCNC(=O)CNc4cccc5c4C(=O)N(C4CCC(=O)NC4=O)C5=O)CC3)cc2)n1 (centres unmarked) [DD-03-171]
BTK-nLuc Dmax [6]: 96% | DC50 ([6]; read-out: BTK-nLuc DC50): 25.9 nM | BTK WB Dmax ([7]; Mino cells): 99% | BTK degradation in Mino cells [7]: potently induces BTK degradation

O=C1CC[C@H](N2Cc3c(OCc4ccc(CN5CCOCC5)cc4)cccc3C2=O)C(=O)N1 [CC220]
BTK degradation in Mino cells [7]: In contrast to PS-1, PS-3 and CC-220, PS-2 potently induces BTK degradation

CN1CCN(C(=O)CNc2cccc3c2C(=O)N(C2CCC(=O)NC2=O)C3=O)CC1 (centres unmarked) [PS-5]
IKZF3 degradation in the nLuc assay [8]: appear to be potent IKZF3 degraders | IKZF1 degradation [9]: less potent | IKZF3 degradation [10]: do not degrade IKZF3

Nc1ccc(N2CCN(C(=O)CNc3cccc4c3C(=O)N(C3CCC(=O)NC3=O)C4=O)CC2)cc1 (centres unmarked) [PS-4]
IKZF1 degradation [9]: substantial IKZF1 degradation | IKZF3 degradation [10]: do not degrade IKZF3

C=CC(=O)Nc1cccc(Oc2nc(Nc3ccc(N4CCN(C)CC4)cc3)nc3ccoc23)c1 [Poseltinib, poseltinib]
IC50 [11]: 1.21 nM | IC50 [12]: 2900 nM

— publication PMC9879287 (Current research in chemical biology, 2022)
